Results reported in publication PMC12446468, “Anti-inflammatory and cytotoxic assessment of flavonoids isolated from Viola odorata flowers with computer-guided docking study” (Scientific Reports, 2025).
Marks after values point to notes of the source that are not given here.

How the values were obtained:
[1] = biological target: T1, 5-LOX enzyme (human recombinant) (Homo sapiens, UniProt P09917); assay: 5-lipoxygenase inhibition assay (5-LOX kit); type: biochemical; conditions: mean ± SE, n = 3
T1 construct: purchased Sigma-Aldrich 437996
T1 sequence (P09917 1-674): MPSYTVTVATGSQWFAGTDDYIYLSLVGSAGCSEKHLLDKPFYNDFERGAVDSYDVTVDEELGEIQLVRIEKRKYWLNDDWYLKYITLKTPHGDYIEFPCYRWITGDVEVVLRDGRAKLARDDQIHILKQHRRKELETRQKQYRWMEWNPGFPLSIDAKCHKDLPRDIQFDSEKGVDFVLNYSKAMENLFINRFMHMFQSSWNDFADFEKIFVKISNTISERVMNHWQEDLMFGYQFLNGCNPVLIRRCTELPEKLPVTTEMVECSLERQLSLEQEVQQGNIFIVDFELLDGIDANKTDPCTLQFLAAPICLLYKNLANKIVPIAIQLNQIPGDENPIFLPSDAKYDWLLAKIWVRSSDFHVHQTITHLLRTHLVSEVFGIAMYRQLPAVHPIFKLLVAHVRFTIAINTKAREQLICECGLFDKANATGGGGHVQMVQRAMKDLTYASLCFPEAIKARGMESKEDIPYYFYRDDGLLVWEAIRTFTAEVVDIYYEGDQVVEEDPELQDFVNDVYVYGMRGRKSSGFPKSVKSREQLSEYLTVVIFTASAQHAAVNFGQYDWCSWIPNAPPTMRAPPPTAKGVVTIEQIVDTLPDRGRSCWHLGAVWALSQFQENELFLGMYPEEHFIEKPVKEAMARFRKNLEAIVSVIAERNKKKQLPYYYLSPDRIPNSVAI
Description: (§1) The requirements for High-Performance Liquid Chromatography (HPLC) and all compounds tested were of the utmost analytical purity. […] COX-1 and COX-2 (ovine/human), as well as the 5-LOX enzyme (human recombinant) were obtained from Sigma-Aldrich. Dulbecco’s Modified Eagle’s Medium (DMEM), along with penicillin/streptomycin and L-glutamine, were acquired from Gibco BRL, California, USA. Fetal bovine serum (FBS) and 3-(4, 5-dimethylthiazol-2-yl)-2, 5-[…] (MTT) were supplied by Sigma-Aldrich, St. Louis, Missouri, USA.
(§2) The methanolic extract of V. odorata flowers and isolated flavonoids were subjected to an in vitro anti-inflammatory assessment by inhibiting two isoenzymes, cyclooxygenase COX-1 and COX-2 (ovine/human), as well as the 5-LOX enzyme (human recombinant).

[2] = tested on: human colorectal carcinoma cells (HTC-116); assay: MTT cytotoxicity assay, HTC-116; type: cell-based; conditions: for % Cell viability / % Cytotoxicity: 48 h
Procedure: (§3) The assessment of cytotoxicity for the methanolic extract and isolated flavonoids was performed under controlled and sterile conditions within a Class II A2 Laminar flow biosafety cabinet. The carcinoma cell lines used in this study was obtained from Nawah Scientific Inc. (Cairo, Egypt). The cells were cultured in Dulbecco’s Modified Eagle’s Medium, enriched with 10% heat-inactivated fetal bovine serum, 100 U/ml penicillin, and 100 μg/ml streptomycin sulfate, maintained at […] in humidified incubators with 5% CO2. Upon reaching approximately 80% confluence, the cells were subcultured using a trypsin–EDTA solution. Harvesting occurred during the logarithmic growth phase. The methanolic extract and isolated flavonoids were dissolved in DMSO and stored at − 20 °C. For each experimental trial, the stock solutions were mixed with the culture medium to obtain the required final concentrations.
(§4) The effectiveness of the extract was compared to that of the reference drug, Doxorubicin. The percentage of cell viability was calculated by taking the ratio of the absorbance of the plant extract to that of the control, multiplied by 100. Furthermore, the IC50 value of the plant extract was determined using Sigma Plot software version 11 (Spw.exe) (https://sigmaplot.software.informer.com/11.0/).

COX-2 = biological target: T2, COX-2 (Homo sapiens, UniProt P35354); assay: COX-2 inhibition assay (Cayman COX kit); type: biochemical, ovine/human
T2 construct: purchased Cayman 560131
T2 sequence (P35354 18-604): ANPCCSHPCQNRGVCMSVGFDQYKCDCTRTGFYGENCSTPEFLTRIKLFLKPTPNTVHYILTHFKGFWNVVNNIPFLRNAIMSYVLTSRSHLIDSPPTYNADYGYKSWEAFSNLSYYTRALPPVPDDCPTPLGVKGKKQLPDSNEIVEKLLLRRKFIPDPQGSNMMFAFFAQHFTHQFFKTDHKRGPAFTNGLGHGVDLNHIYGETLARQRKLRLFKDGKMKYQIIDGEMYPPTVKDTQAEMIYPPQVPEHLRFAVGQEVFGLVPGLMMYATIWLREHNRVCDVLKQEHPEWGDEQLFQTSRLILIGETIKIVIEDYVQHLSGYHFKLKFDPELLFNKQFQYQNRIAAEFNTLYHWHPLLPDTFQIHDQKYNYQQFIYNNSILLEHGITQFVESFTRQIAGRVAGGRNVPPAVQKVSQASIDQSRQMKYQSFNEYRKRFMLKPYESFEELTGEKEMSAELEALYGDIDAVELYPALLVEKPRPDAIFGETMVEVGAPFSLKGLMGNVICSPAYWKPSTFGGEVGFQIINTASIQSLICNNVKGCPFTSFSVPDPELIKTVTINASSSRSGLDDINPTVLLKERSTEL
Description: as §1, §2

[3] = tested on: human colonic epithelial cells (Caco-2); assay: MTT cytotoxicity assay, Caco-2; type: cell-based; conditions: for % Cell viability / % Cytotoxicity: 48 h
Procedure: as §3, §4

COX-1 = biological target: T3, COX-1 (Ovis aries, UniProt P05979); assay: COX-1 inhibition assay (Cayman COX kit); type: biochemical, ovine/human; conditions: mean ± SE, n = 3
T3 construct: purchased Cayman 560131
T3 sequence (P05979 25-600): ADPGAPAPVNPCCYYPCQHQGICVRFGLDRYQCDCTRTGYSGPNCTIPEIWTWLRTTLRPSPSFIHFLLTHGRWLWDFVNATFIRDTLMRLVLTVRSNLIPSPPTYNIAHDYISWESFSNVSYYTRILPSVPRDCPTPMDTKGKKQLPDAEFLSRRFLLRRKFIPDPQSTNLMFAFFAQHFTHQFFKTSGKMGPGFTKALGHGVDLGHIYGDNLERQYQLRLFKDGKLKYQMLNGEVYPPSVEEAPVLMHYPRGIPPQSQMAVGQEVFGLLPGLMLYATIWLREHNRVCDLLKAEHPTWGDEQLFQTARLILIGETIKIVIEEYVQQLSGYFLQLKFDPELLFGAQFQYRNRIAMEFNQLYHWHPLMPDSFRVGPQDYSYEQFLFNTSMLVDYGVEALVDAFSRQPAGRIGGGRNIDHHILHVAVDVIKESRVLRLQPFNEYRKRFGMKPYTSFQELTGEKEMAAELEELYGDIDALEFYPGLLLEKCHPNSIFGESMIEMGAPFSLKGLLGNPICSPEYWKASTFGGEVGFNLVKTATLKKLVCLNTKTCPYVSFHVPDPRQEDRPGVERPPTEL
Description: as §1, §2

[4] = tested on: hepatocellular carcinoma (HepG2); assay: MTT cytotoxicity assay, HepG2; type: cell-based, human; conditions: for % Cell viability / % Cytotoxicity: 48 h
Procedure: as §3, §4

SMILES: O=c1cc(-c2ccc(O)c(O)c2)oc2cc(O[C@@H]3O[C@H](CO)[C@@H](O)[C@H](O)[C@H]3O)cc(O)c12 [Luteolin 7-O-glucoside, luteolin 7-O-glucoside]
- IC50 values 5-LOX [1]: 0.915 ± 0.21^ab ug/ml
- % Cell viability ([2]; HTC-116, 6.25 ug/ml): 69.86%
- % Cytotoxicity ([2]; HTC-116, 6.25 ug/ml): 30.14%
- % Cell viability ([2]; HTC-116, 12.5 ug/ml): 59.38%
- % Cytotoxicity ([2]; HTC-116, 12.5 ug/ml): 40.62%
- % Cell viability ([2]; HTC-116, 25 ug/ml): 49.17%
- % Cytotoxicity ([2]; HTC-116, 25 ug/ml): 50.83%
- % Cell viability ([2]; HTC-116, 50 ug/ml): 34.03%
- % Cytotoxicity ([2]; HTC-116, 50 ug/ml): 65.97%
- % Cell viability ([2]; HTC-116, 100 ug/ml): 13.01%
- % Cytotoxicity ([2]; HTC-116, 100 ug/ml): 86.99%
- IC50 ([2]; HTC-116, 48 h): 30.17^c ug/ml
- IC50 values COX-2 (COX-2; mean ± SE, n = 3): 1.305 ± 0.14^b ug/ml
- Selectivity Index (COX-1/COX-2) (COX-2; ratio of IC50 COX-1 to IC50 COX-2): 0.75
- % Cell viability ([3]; Caco-2, 6.25 ug/ml): 70.32%
- % Cytotoxicity ([3]; Caco-2, 6.25 ug/ml): 29.68%
- % Cell viability ([3]; Caco-2, 12.5 ug/ml): 60.35%
- % Cytotoxicity ([3]; Caco-2, 12.5 ug/ml): 39.65%
- % Cell viability ([3]; Caco-2, 25 ug/ml): 49.22%
- % Cytotoxicity ([3]; Caco-2, 25 ug/ml): 50.78%
- % Cell viability ([3]; Caco-2, 50 ug/ml): 31.01%
- % Cytotoxicity ([3]; Caco-2, 50 ug/ml): 68.99%
- % Cell viability ([3]; Caco-2, 100 ug/ml): 10.63%
- % Cytotoxicity ([3]; Caco-2, 100 ug/ml): 89.37%
- IC50 ([3]; Caco-2, 48 h): 29.42^c ug/ml
- IC50 values COX-1 (COX-1): 0.982 ± 0.09^c ug/ml
- % Cell viability ([4]; HepG2, 6.25 ug/ml): 70.35%
- % Cytotoxicity ([4]; HepG2, 6.25 ug/ml): 29.65%
- % Cell viability ([4]; HepG2, 12.5 ug/ml): 63.99%
- % Cytotoxicity ([4]; HepG2, 12.5 ug/ml): 36.01%
- % Cell viability ([4]; HepG2, 25 ug/ml): 42.58%
- % Cytotoxicity ([4]; HepG2, 25 ug/ml): 57.42%
- % Cell viability ([4]; HepG2, 50 ug/ml): 28.52%
- % Cytotoxicity ([4]; HepG2, 50 ug/ml): 71.48%
- % Cell viability ([4]; HepG2, 100 ug/ml): 14.11%
- % Cytotoxicity ([4]; HepG2, 100 ug/ml): 85.89%
- IC50 ([4]; HepG2, 48 h): 28.23^c ug/ml
